# Literature values as cited in patent US20240398797A1, “COMBINATION THERAPIES FOR METASTATIC CASTRATION-RESISTANT PROSTATE CANCER” (Janssen Pharmaceutica NV, priority 2021, published 2024).
# Experiments:
# [1] = system: non-castrate hormone-sensitive and bicalutamide-resistant human prostate cancer xenograft models
# [2] = target: T1, T877A AR mutant (Homo sapiens, UniProt P10275, T878A)
# T1 sequence (P10275 1-920 T878A): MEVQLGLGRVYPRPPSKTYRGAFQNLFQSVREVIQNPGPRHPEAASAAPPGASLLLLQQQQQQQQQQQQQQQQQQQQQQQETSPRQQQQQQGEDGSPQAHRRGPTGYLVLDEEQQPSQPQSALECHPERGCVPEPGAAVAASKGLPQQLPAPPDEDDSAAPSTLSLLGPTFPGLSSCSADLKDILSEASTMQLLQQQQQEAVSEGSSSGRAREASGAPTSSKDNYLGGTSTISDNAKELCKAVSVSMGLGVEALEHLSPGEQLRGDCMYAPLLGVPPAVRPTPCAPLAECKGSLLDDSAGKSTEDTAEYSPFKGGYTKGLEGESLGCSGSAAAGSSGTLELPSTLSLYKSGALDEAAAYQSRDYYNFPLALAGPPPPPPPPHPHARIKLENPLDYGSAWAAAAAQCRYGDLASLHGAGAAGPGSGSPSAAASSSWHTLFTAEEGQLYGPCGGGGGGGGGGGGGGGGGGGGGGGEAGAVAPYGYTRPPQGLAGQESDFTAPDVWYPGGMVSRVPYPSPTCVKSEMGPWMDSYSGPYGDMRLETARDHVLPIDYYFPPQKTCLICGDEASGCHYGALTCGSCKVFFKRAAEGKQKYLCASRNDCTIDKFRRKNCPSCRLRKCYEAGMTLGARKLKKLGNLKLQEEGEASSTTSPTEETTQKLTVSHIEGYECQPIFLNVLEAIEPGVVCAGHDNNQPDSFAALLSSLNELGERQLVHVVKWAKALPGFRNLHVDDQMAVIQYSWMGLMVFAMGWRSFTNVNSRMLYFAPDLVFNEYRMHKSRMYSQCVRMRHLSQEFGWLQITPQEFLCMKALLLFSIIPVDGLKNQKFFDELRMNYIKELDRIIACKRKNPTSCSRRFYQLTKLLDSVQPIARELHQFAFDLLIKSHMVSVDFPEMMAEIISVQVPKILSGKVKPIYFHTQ
activity at AR mutant [2],Compound,tumor regression [1]
–,"CNC(=O)c1ccc(N2C(=S)N(c3cnc(C#N)c(C(F)(F)F)c3)C(=O)C23CCC3)cc1F [Apalutamide, 4-[7-(6-cyano-5-trifluoromethylpyridin-3-yl)-8-oxo-6-thioxo-5,7-diazaspiro [3.4]oct-5-yl]-2-fluoro-N-methylbenzamide]",partial or complete tumor regression
act as AR agonists,CC(C)(O)C(=O)Nc1ccc([N+](=O)[O-])c(C(F)(F)F)c1 [hydroxyflutamide],–
